According to US6967196B1, “Sulfonamide compounds and uses thereof” (Bristol-Myers Squibb Company, priority 1999, dated 2005):
Where a name gives a salt, the structure may show the parent alone. Read-outs that look alike come from different tables or passages of the source.

Tested on: amyloid β production in transfected H4 (human neuroglioma) cells stably expressing APP constructs
Test: In vitro cell-based assay of inhibitors of amyloid β production (ELISA)
Settings: amyloid β in medium by ELISA
Summary of the method: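 Cells expressing wild-type or variant APP were plated ≥6 h before medium was replaced with compound-containing medium (initial screen 10-100 μM) and incubated ~16 h. Secreted Aβ in medium was quantified by sandwich ELISA (C-terminal-specific mouse monoclonal capture, N-terminal rabbit polyclonal detection) against an Aβ standard curve.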

[1] = Homo sapiens, 16 h, transfected H4 cells stably expressing APP constructs, approximately 16 hours incubation, read-out: ACTIVITY (IC50, inhibition of amyloid β production)
[2] = transfected H4 cells stably expressing APP, approximately 16 hours incubation, Table B, read-out: ACTIVITY (IC50, inhibition of amyloid β production)
[3] = transfected H4 cells stably expressing APP constructs, approximately 16 hours incubation, read-out: ACTIVITY (IC50, inhibition of amyloid β production)
[4] = Homo sapiens, 16 h, transfected H4 cells stably expressing APP, approximately 16 hours incubation, read-out: ACTIVITY (IC50, inhibition of amyloid β production)
[5] = transfected H4 cells stably expressing APP, approx. 16 h incubation, read-out: ACTIVITY (IC50, inhibition of amyloid β production)
[6] = transfected H4 cells stably expressing APP, approximately 16 hours incubation, read-out: ACTIVITY (IC50, inhibition of amyloid β production)

## C[C@@H](c1ccccc1OCCCn1ccnc1)N(c1cc(F)ccc1F)S(=O)(=O)c1ccc(Cl)cc1 [Example 1048, 4-chloro-N-(2,5-difluorophenyl)-N-((1S)-1-{2-[3-(1H-imidazol-1-yl)propoxy]phenyl}ethyl)benzenesulfonamide hydrochloride]
Transfected H4 cells stably expressing APP, approximately 16 hours incubation, hydrochloride, read-out: ACTIVITY (IC50, inhibition of amyloid β production)
  IC50: > 500 nM

## O=S(=O)(c1ccc(Cl)cc1)N(Cc1ccccc1OCCCN1CCCCC1)c1cccc(Cl)c1 [Example 663, 4-chloro-N-(3-chlorophenyl)-N-{2-[3-(1-piperidinyl)propoxy]benzyl}benzenesulfonamide hydrochloride]
Homo sapiens, 16 h, transfected H4 cells stably expressing APP, approx. 16 h incubation, read-out: ACTIVITY (IC50, inhibition of amyloid β production)
  IC50: 100 to 500 nM

## C[C@H](CCCS(=O)(=O)O)N(c1cc(Cl)ccc1CO)S(=O)(=O)c1ccc(Cl)cc1 [Example 1231, (4R)-4-[N-[5-chloro-2-(hydroxymethyl)phenyl][(4-chlorophenyl)sulfonyl]amino]pentylsulfonic acid]
[1]
  IC50: 100 to 500 nM

## CCCN(CCC)C(=O)CCCc1cc(F)ccc1[C@@H](C)N(c1cc(F)ccc1F)S(=O)(=O)c1ccc(Cl)cc1 [Example 500, 4-[2-((1R)-1-{[(4-chlorophenyl)sulfonyl]-2,5-difluoroanilino}ethyl)-5-fluorophenyl]-N,N-dipropylbutanamide]
[2]
  IC50: 100 to 500 nM

## C[C@H](CCC[S+](C)[O-])N(c1cc(Cl)ccc1CO)S(=O)(=O)c1ccc(Cl)cc1 (stereo partly drawn) [Example 1224, 4-chloro-N-[5-chloro-2-(hydroxymethyl)phenyl]-N-[1(R)-methyl-(4-methylsulfinyl)butyl]benzenesulfonamide]
[3]
  IC50: ≤ 25 nM

## CS(=O)(=O)C[C@H]1CCCN1 [Example 68]
Table B, transfected H4 cells stably expressing APP, approximately 16 hours incubation, read-out: ACTIVITY (inhibitory concentration IC50, inhibition of amyloid β production)
  IC50: ≤ 25 nM

## CONC(=O)CCCOc1ccccc1C(C)N(c1cc(F)ccc1F)S(=O)(=O)c1ccc(Cl)cc1 (stereo not drawn) [Example 379, 4-[2-(1-{[(4-Chlorophenyl)sulfonyl]-2,5-difluoroanilino}ethyl)phenoxy]-N-methoxybutanamide]
[2]
  IC50: 50 to 100 nM

## COc1ccc(CNC(=O)[C@@H](C)N(c2cc(Cl)ccc2F)S(=O)(=O)c2ccc(Cl)cc2)cc1 [Example 1361]
Homo sapiens, 16 h, transfected H4 cells expressing APP, approximately 16 hours incubation, read-out: ACTIVITY (IC50, inhibition of amyloid β production)
  IC50: > 500 nM

## CONC(=O)COc1ccccc1C(C)N(c1cc(F)ccc1F)S(=O)(=O)c1ccc(Cl)cc1 (stereo not drawn) [Example 382, [2-(1-{[(4-Chlorophenyl)sulfonyl]-2,5-difluoroanilino}ethyl)phenoxy]-N-methoxyacetamide]
[2]
  IC50: 50 to 100 nM

## CC([C@@H]1CCCN1C(=O)OC(C)(C)C)N(c1cc(Cl)ccc1Cl)S(=O)(=O)c1ccc(Cl)cc1 (stereo in doubt) [Example 1255, 4-chloro-N-(2,5-dichlorophenyl)-N-[1-(S)-[1-[(1,1-dimethylethoxy)carbonyl]pyrrolidin-2-yl]ethyl]benzenesulfonamide]
[1]
  IC50: > 500 nM

## COc1ccc(S(=O)(=O)N(Cc2ccccc2OCCCN2CCCCC2)c2cc(F)ccc2F)cc1 [Example 879, N-(2,5-difluorophenyl)-4-methoxy-N-{2-[3-(1-piperidinyl)propoxy]benzyl}benzenesulfonamide hydrochloride]
[4]
  IC50: > 500 nM

## Cc1ccc(C(=O)N2CCCCC2CCOc2ccccc2CN(c2cc(F)ccc2F)S(=O)(=O)c2ccc(Cl)cc2)cc1 (stereo not drawn) [Example 884, 4-chloro-N-(2,5-difluorophenyl)-N-(2-{2-[1-(4-methylbenzoyl)-2-piperidinyl]ethoxy}benzyl)benzenesulfonamide]
[4]
  IC50: > 500 nM

## 2-((1R)-1-{[(4-chlorophenyl)sulfonyl]-2,5-difluoroanilino}ethyl)benzyl butyl(methyl)carbamate [Example 720]
[5]
  IC50: 100 to 500 nM

## N-{3-[2-(1-{[(4-chlorophenyl)sulfonyl]-2,5-difluoroanilino}ethyl)phenoxy]propyl}-2,2-diphenylacetamide [Example 784]
[5]
  IC50: 100 to 500 nM

## CN(CCCOc1ccccc1CN(c1cc(F)ccc1F)S(=O)(=O)c1ccc(Cl)cc1)C(=O)CCCCC1SCC2NC(=O)NC21 (stereo not drawn) [Example 666, N-{3-[2-({[(4-chlorophenyl)sulfonyl]-2,5-difluoroanilino}methyl)phenoxy]propyl}-N-methyl-5-(2-oxohexahydro-1H-thieno[3,4-d]imidazol-4-yl)pentamide]
[5]
  IC50: 100 to 500 nM

## 3-bromo-N-{3-[2-(1-{[(4-chlorophenyl)sulfonyl]-2,5-difluoroanilino}ethyl)phenoxy]propyl}benzamide [Example 829]
[6]
  IC50: 100 to 500 nM

## 2-((1R)-1-{[(4-chlorophenyl)sulfonyl]-2,5-difluoroanilino}ethyl)benzyl 2-(4-chlorophenyl)ethylcarbamate [Example 731]
[5]
  IC50: 100 to 500 nM

## C[C@H](CCCN1CCC(CS(C)(=O)=O)CC1)N(c1cc(Cl)ccc1Cl)S(=O)(=O)c1ccc(Cl)cc1 [Example 1157, 4-chloro-N-(2,5-dichlorophenyl)-N-[4-[[4-(methylsulfonyl)methyl]-1-piperidinyl]-1(R)-methylbutyl)benzenesulfonamide]
[3]
  IC50: 100 to 500 nM

## C[N+]1(CCCOc2ccccc2CN(c2cc(Cl)ccc2Cl)S(=O)(=O)c2ccc(Cl)cc2)CCCCC1 [Example 1038, 1-{3-[2-((2,5-dichloro[(4-chlorophenyl)sulfonyl]anilino}methyl)phenoxy]propyl}-1-methylpiperidinium iodide]
[6]
  IC50: > 500 nM

## C[C@H](c1ccc(F)cc1CCOC(=O)NCc1ccco1)N(c1cc(F)ccc1F)S(=O)(=O)c1ccc(Cl)cc1 [Example 435, 2-[2-((1R)-1-{[(4-chlorophenyl)sulfonyl]-2,5-difluoroanilino}ethyl)-5-fluorophenyl]ethyl 2 furylmethylcarbamate]
Homo sapiens, 16 h, transfected H4 cells stably expressing APP, approximately 16 hours incubation, Table B, read-out: ACTIVITY (IC50, inhibition of amyloid β production)
  IC50: 50 to 100 nM

## O=S(=O)(c1ccc(Cl)cc1)N(Cc1ccccc1OCCCN1CCCC(O)C1)c1ccccc1 (stereo not drawn) [Example 915, 4-chloro-N-{2-[3-(3-hydroxy-1-piperidinyl)propoxy]benzyl}-N-phenylbenzenesulfonamide hydrochloride]
[4]
  IC50: > 500 nM

## CC(C)[C@H](NC(=O)CCC[C@@H](C)N(c1cc(Cl)ccc1F)S(=O)(=O)c1ccc(Cl)cc1)C(=O)O [Example 536, (R)-4-Chloro-N-(5-chloro-2-fluorophenyl)-N-[5-[N-(S)-[1-(carboxy)-2-methylpropyl]amino]-1-methyl-5-oxopentyl]benzenesulfonamide]
[2]
  IC50: 100 to 500 nM

## 2-[2-(1-{[(4-chlorophenyl)sulfonyl]-2,5-difluoroanilino}ethyl)phenoxy]-N-methylacetamide [Example 1064]
[6]
  IC50: > 500 nM

## Cc1cccc(N(Cc2ccccc2OCCCN2CCCCC2)S(=O)(=O)c2ccc(Cl)cc2)c1 [Example 919, 4-chloro-N-(3-methylphenyl)-N-{2-[3-(1-piperidinyl)propoxy]benzyl}benzenesulfonamide hydrochloride]
[4]
  IC50: > 500 nM

## N-{3-[2-(1-{[(4-chlorophenyl)sulfonyl]-2,5-difluoroanilino}ethyl)phenoxy]propyl}-4-methoxy-N-methylbenzamide [Example 652]
[5]
  IC50: 100 to 500 nM

## O=S(=O)(c1ccc(Cl)cc1)N(CCc1ccccc1O)c1ccccc1 [Example 1015, 4-chloro-N-[2-(2-hydroxyphenyl)ethyl]-N-phenylbenzenesulfonamide]
[4]
  IC50: > 500 nM

## 3,5-dichloro-N-{3-[2-(1-{[(4-chlorophenyl)sulfonyl]-2,5-difluoroanilino}ethyl)phenoxy]propyl}-N-methylbenzamide [Example 950]
[6]
  IC50: > 500 nM

## N-{3-[2-(1-{[(4-chlorophenyl)sulfonyl]-2,5-difluoroanilino}ethyl)phenoxy]propyl}-N-methyl-3,5-bis(trifluoromethyl)benzamide [Example 934]
[6]
  IC50: > 500 nM

## O=S(=O)(Cc1ccccc1)N(Cc1ccccc1OCCCN1CCCCC1)c1cc(Cl)ccc1Cl [Example 992, N-(2,5-dichlorophenyl)(phenyl)-N-{2-[3-(1-piperidinyl)propoxy]benzyl}methanesulfonamide hydrochloride]
[4]
  IC50: > 500 nM

## CCC1CCCCN1CCCOc1ccccc1CN(c1ccccc1)S(=O)(=O)c1ccc(Cl)cc1 (stereo not drawn) [Example 865, 4-chloro-N-{2-[3-(2-ethyl-1-piperidinyl)propoxy]benzyl}-N-phenylbenzenesulfonamide hydrochloride]
[4]
  IC50: 100 to 500 nM

## CC(C)SCCC[C@@H](C)N(c1cc(Cl)ccc1Cl)S(=O)(=O)c1ccc(Cl)cc1 [Example 1190]
[3]
  IC50: 100 to 500 nM

## COc1ccc(SCCCOc2ccccc2CN(c2cc(F)ccc2F)S(=O)(=O)c2ccc(Cl)cc2)cc1 [Example 1029, 4-chloro-N-(2,5-difluorophenyl)-N-(2-{3-[(4-methoxyphenyl)sulfanyl]propoxy}benzyl)benzenesulfonamide]
[4]
  IC50: > 500 nM

## 3,4-dichloro-N-{3-[2-(1-{[(4-chlorophenyl)sulfonyl]-2,5-difluoroanilino}ethyl)phenoxy]propyl}-N-methylbenzenesulfonamide [Example 822]
[6]
  IC50: 100 to 500 nM
